What all share (assay): Growth inhibitory activity of compounds on BaF3 cell lines stably transfected with kinase (MTS, 48 h)
Assay type in all cases: cell-based

Assay [1] has as its target T1, various mutants of kinase EGFR (BaF3 cell lines stably transfected with kinase) (Homo sapiens, UniProt P00533, L858R).
T1 construct: expressed in transfected cells; host or cells: BaF3
The following applies: BaF3 cells stably transfected with EGFR L858R, read-out: IC50, growth inhibition, L858R. The procedure:
(§1) The activity of compounds against various mutants of kinase EGFR was evaluated by their effect of inhibiting growth of BaF3 cell lines stably transfected with kinase. The specific test method was given as follows:
(§2) 1) Culture medium: DMEM (Dulbecco’s modified eagle medium) or RPMI 1640 (containing 10% fetal bovine serum, 100 µg/mL ampicillin, 100 µg/mL streptomycin).
(§3) 2) Reagent: MTS reaction solution (containing 2 mg/mL of MTS [3-(4,5-dimethylthiazol-2-yl)-5-(3-carboxymethoxyphenyl)-2-(4-sulfophenyl)-2H-tetrazoliu m, inner Salt]; 100 µg/mL of PES ([…])).
(§4) 3) Compound test: cells were incubated into a 96-well culture plate, the volume of cytosol was 90 µL, and then 10 µL of the compound at each gradient concentration was added. That is, the highest concentration was 10 µM, which was diluted stepwise by ⅓, and 8 concentration points were set in total; 0.1% DMSO (dimethyl sulfoxide) was contained in the system. The cell plate with uniformly mixed compound was cultured in a cell culture incubator (37° C.; 5% CO2) for 48 h, then 20 µL of MTS reaction solution was added, uniformly mixed and incubated in the cell culture incubator (37° C.; 5% CO2) for 1-4 h. OD values at 490 nm were measured by a microplate reader (VARIOSKAN FLASH, Thermo). Two parallels were set in each group of experiments, with 0.1% (a final concentration) DMSO as a negative control, and a culture medium without cells and compounds as a blank control. The cell growth inhibition rate was calculated by the following formula: […]
(§5) 4) IC50 calculation: The semi-inhibitory concentration of the compounds acting on cells was calculated using GradPad Prism 5 software according to the measured cell growth inhibition rate.

For assay [2], the target named is T2, various mutants of kinase EGFR (BaF3 cell lines stably transfected with kinase) (Homo sapiens, UniProt P00533, T790M, form not given).
T2 construct: other: BaF3 cells stably transfected with EGFR Δ19Del/T790M; MTS, 48 h; other: BaF3 cell line stably transfected with EGFR Δ19Del/T790M; MTS, 48
The following applies: BaF3 cells stably transfected with EGFR Δ19Del/T790M, read-out: IC50, growth inhibition, Δ19Del/T790M. The procedure:
as §1, §2, §3, §4, §5

The target in assay [3] is T3, various mutants of kinase EGFR (BaF3 cell lines stably transfected with kinase) (Homo sapiens, UniProt P00533, L858R/T790M).
T3 construct: expressed in transfected cells; host or cells: BaF3
T3 sequence (P00533 25-1210 T790M/L858R): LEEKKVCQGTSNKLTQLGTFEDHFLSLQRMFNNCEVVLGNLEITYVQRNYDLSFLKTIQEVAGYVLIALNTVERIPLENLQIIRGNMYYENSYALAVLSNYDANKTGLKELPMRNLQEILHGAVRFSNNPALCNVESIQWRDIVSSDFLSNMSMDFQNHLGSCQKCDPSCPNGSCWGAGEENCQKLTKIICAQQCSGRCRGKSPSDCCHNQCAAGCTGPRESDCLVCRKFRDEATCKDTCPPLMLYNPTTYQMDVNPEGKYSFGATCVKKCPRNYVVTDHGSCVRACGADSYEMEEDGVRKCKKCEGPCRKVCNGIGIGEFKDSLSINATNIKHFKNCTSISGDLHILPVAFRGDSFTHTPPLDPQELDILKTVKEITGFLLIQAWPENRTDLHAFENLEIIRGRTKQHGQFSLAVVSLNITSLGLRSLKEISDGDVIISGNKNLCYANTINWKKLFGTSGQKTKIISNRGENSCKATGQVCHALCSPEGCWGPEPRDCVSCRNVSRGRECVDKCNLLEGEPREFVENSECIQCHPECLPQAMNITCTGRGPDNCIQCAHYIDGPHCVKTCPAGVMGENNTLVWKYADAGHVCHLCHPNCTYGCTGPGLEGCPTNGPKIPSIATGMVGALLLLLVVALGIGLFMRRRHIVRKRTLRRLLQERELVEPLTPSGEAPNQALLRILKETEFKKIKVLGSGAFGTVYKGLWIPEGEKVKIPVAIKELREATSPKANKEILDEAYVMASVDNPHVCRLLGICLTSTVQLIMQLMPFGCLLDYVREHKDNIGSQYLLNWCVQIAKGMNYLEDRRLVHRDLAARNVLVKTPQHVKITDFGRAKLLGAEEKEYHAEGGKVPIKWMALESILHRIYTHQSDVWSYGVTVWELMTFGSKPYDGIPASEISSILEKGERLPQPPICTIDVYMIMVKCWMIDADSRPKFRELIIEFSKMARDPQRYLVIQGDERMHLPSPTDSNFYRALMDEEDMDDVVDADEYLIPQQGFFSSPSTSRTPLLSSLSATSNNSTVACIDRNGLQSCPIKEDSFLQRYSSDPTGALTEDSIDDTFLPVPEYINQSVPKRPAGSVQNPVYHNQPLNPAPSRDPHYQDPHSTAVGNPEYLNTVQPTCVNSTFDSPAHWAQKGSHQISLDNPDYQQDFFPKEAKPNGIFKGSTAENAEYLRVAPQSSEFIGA
To be noted: BaF3 cells stably transfected with EGFR L858R/T790M, read-out: IC50, growth inhibition, L858R/T790M. The procedure:
as §1, §2, §3, §4, §5

The target in assay [4] is T4, various mutants of kinase EGFR (BaF3 cell lines stably transfected with kinase) (Homo sapiens, UniProt P00533, C797S/L858R/T790M).
T4 construct: expressed in transfected cells; host or cells: BaF3
To be noted: BaF3 cells stably transfected with EGFR L858R/T790M/C797S, read-out: IC50, growth inhibition, L858R/T790M/C797S. The procedure: as §1, §2, §3, §4, §5

The target in assay [5] is T5, various mutants of kinase EGFR (BaF3 cell lines stably transfected with kinase) (Homo sapiens, UniProt P00533, T790M/C797S, form not given).
T5 construct: other: BaF3 cells stably transfected with EGFR Δ19Del/T790M/C797S; MTS, 48; other: BaF3 cell line stably transfected with EGFR Δ19Del/T790M/C7
T5 sequence (P00533 with tags, fused parts or gaps DEL746-750/T790M/C797S, form open): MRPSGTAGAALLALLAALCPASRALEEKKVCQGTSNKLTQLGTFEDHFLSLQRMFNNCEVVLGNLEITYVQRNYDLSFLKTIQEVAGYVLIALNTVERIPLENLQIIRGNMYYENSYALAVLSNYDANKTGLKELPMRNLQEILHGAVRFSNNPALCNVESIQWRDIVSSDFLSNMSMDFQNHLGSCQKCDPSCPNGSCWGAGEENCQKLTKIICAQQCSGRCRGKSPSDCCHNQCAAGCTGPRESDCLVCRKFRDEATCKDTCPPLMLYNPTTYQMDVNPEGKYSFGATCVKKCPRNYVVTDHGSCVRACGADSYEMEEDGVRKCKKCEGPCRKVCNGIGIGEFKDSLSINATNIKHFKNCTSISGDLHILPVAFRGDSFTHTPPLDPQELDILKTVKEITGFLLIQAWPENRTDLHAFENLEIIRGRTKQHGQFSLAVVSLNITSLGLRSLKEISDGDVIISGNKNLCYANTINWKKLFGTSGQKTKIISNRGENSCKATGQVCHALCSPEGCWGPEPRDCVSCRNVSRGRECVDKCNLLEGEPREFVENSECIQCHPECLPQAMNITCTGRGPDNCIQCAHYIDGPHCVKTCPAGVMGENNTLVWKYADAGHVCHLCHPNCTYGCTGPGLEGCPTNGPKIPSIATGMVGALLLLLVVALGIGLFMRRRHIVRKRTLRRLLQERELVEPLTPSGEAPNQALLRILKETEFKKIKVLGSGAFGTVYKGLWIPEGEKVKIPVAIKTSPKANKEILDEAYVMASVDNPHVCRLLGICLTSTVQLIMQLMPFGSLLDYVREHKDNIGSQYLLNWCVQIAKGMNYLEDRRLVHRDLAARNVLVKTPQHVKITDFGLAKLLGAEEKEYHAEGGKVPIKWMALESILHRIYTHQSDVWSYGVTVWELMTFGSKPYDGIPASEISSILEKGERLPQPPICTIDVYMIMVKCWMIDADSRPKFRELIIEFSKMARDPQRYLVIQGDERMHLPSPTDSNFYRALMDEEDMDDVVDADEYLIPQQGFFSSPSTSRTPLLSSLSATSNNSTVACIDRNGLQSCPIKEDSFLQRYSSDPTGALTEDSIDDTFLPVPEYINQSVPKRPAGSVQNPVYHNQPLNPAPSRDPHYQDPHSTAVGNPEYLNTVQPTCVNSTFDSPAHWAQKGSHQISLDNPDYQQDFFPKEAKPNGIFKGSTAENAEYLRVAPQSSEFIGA
The following applies: BaF3 cells stably transfected with EGFR Δ19Del/T790M/C797S, read-out: IC50, growth inhibition, Δ19Del/T790M/C797S. The procedure:
as §1, §2, §3, §4, §5

Assay [6] concerns the target T6, various mutants of kinase EGFR (BaF3 cell lines stably transfected with kinase) (Homo sapiens, UniProt P00533).
T6 construct: other: BaF3 cells stably transfected with EGFR Δ19Del; MTS, 48 h; other: BaF3 cell line stably transfected with EGFR Δ19Del
The following applies: BaF3 cells stably transfected with EGFR Δ19Del, read-out: IC50, growth inhibition, Δ19Del. The procedure: as §1, §2, §3, §4, §5

T1 sequence (P00533 25-1210 L858R): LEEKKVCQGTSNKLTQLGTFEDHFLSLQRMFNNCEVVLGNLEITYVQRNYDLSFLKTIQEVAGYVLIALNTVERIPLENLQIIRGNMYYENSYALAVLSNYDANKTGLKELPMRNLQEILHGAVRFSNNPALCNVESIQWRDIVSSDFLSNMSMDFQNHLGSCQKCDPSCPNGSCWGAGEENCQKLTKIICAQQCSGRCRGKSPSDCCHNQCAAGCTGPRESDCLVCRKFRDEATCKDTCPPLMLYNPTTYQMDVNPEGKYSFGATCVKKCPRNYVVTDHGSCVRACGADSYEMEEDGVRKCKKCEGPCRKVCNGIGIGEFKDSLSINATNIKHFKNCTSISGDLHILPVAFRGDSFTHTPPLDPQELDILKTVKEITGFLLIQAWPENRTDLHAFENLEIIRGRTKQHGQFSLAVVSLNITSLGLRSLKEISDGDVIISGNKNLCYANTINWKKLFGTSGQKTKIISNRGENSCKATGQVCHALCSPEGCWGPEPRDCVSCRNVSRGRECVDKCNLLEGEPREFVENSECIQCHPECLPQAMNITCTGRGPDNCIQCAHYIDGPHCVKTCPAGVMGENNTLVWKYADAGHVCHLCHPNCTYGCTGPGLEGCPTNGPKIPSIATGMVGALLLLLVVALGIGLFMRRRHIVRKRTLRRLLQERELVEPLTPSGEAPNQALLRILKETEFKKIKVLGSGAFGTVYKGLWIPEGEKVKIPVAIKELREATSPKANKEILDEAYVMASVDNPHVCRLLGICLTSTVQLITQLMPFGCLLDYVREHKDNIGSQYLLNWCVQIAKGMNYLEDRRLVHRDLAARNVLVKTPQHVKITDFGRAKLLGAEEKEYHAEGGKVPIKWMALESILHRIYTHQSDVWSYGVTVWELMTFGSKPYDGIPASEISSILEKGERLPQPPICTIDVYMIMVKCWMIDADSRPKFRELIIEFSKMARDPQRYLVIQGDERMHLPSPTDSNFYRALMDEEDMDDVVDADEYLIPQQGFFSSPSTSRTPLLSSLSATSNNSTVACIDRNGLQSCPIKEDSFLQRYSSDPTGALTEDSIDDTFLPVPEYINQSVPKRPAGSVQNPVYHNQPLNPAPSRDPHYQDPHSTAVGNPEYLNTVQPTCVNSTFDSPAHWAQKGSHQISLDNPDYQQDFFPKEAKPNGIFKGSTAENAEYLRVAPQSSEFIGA
T6 sequence (P00533 with tags, fused parts or gaps DEL746-750): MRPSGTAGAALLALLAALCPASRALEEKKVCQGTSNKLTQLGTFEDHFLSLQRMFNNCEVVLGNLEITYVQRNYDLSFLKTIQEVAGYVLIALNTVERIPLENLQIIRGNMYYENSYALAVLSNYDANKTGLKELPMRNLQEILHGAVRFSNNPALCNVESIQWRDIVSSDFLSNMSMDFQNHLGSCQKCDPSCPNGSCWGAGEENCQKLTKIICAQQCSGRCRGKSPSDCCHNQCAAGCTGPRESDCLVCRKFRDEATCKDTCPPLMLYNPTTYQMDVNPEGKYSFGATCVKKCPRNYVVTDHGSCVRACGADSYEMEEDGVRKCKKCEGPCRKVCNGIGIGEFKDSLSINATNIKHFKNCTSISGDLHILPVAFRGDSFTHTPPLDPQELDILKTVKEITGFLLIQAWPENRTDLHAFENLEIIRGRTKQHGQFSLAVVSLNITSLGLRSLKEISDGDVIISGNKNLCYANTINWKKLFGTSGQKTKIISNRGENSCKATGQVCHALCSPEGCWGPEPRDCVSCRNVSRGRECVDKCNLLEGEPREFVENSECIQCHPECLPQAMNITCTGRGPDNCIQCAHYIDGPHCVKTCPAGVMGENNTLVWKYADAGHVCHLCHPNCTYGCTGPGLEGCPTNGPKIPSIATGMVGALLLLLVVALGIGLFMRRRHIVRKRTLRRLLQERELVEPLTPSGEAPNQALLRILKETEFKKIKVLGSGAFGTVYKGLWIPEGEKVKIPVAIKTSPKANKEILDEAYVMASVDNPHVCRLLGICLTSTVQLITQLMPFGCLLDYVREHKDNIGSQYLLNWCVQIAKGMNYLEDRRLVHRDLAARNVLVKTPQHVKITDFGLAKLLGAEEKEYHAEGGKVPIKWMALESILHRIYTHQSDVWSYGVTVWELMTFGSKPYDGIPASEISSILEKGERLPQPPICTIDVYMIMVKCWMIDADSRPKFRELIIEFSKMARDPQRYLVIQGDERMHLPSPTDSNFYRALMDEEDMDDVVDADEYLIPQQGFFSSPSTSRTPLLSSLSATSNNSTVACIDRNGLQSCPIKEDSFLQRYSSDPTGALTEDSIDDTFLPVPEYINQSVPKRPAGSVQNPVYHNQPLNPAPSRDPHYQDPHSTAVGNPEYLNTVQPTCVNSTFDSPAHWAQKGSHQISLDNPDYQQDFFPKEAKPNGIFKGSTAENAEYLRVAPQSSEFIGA

On to `COc1cc(N2CCC(N3CCN(C)CC3)CC2)ccc1Nc1ncc(Br)c(Nc2ccc3nccnc3c2N(C)S(C)(=O)=O)n1` [Compound I-1], for which the IC50 in assay [1], in assay [2], in assay [3], in assay [4], in assay [5] and in assay [6] was not above 50 nM throughout.
Take `COc1cc(N2CCC(N3CCN(C)CC3)CC2)c(C)cc1Nc1ncc(Br)c(Nc2ccc3nccnc3c2N(C)S(C)(=O)=O)n1` [Compound I-2]: the IC50 in assay [1], in assay [2], in assay [3], in assay [4], in assay [5] and in assay [6] was not above 50 nM throughout.
`CCc1cc(Nc2ncc(Br)c(Nc3ccc4nccnc4c3N(C)S(C)(=O)=O)n2)c(OC)cc1N1CCC(N2CCN(C)CC2)CC1` [Compound I-3]: the IC50 in assay [1], in assay [2], in assay [3], in assay [4], in assay [5] and in assay [6] was not above 50 nM each time.
As for `COc1nc(N2CCC(N3CCN(C)CC3)CC2)ccc1Nc1ncc(Br)c(Nc2ccc3nccnc3c2N(C)S(C)(=O)=O)n1` [Compound I-4], the IC50 was 50 to 500 nM in assay [1]; 50 to 500 nM in assay [2]; 50 to 500 nM in assay [3]; 50 to 500 nM in assay [4]; not above 50 nM in assay [5]; 50 to 500 nM in assay [6].
On to `CCc1cc(Nc2ncc(Br)c(Nc3ccc4nccnc4c3N(C)S(C)(=O)=O)n2)c(OC)nc1N1CCC(N2CCN(C)CC2)CC1` [Compound I-6], for which the IC50 in assay [1] is not above 50 nM; in assay [2], not above 50 nM; in assay [3] it was not above 50 nM; in assay [4], not above 50 nM; in assay [5], not above 50 nM; in assay [6], 50 to 500 nM.
For `CN1CCN(C2CCN(c3ccc(Nc4ncc(Br)c(Nc5ccc6nccnc6c5N(C)S(C)(=O)=O)n4)c(OC(F)(F)F)c3)CC2)CC1` [Compound I-7], the IC50 in assay [1] is 50 to 500 nM; in assay [2], 50 to 500 nM; in assay [3], 50 to 500 nM; in assay [4] it was 50 to 500 nM; in assay [5], not above 50 nM; in assay [6], 50 to 500 nM.
Consider `C=Cc1cc(Nc2ncc(Br)c(Nc3ccc4nccnc4c3N(C)S(C)(=O)=O)n2)c(OC(F)(F)F)cc1N1CCC(N2CCN(C)CC2)CC1` [Compound I-9], for which the IC50 in assay [1], in assay [2], in assay [3], in assay [4], in assay [5] and in assay [6] was not above 50 nM throughout.
`COc1cc(N2CCC(N3CCN(C)CC3)CC2)c(CC2CC2)cc1Nc1ncc(Br)c(Nc2ccc3nccnc3c2N(C)S(C)(=O)=O)n1` [Compound I-10]: the IC50 is not above 50 nM in assay [1]; not above 50 nM in assay [2]; not above 50 nM in assay [3]; not above 50 nM in assay [4]; not above 50 nM in assay [5]; 50 to 500 nM in assay [6].
In the case of `COc1cc(N2CCC(N3CCN(C)CC3)CC2)c(Cc2ccccc2)cc1Nc1ncc(Br)c(Nc2ccc3nccnc3c2N(C)S(C)(=O)=O)n1` [Compound I-11], the IC50 in assay [1] lay in the range of 50 to 500 nM; in assay [2], 500 to 2500 nM; in assay [3] it was 500 to 2500 nM; in assay [4], 500 to 2500 nM; in assay [5], 500 to 2500 nM; in assay [6], 500 to 2500 nM.
In the case of `COc1cc(N2CCN(C)CC2)c(C)cc1Nc1ncc(Br)c(Nc2ccc3nccnc3c2N(C)S(C)(=O)=O)n1` [Compound I-12], the IC50 was not above 50 nM in assay [1]; not above 50 nM in assay [2]; not above 50 nM in assay [3]; not above 50 nM in assay [4]; not above 50 nM in assay [5]; 50 to 500 nM in assay [6].
On to `COc1cc(N2CCC(N(C)C)CC2)c(C)cc1Nc1ncc(Br)c(Nc2ccc3nccnc3c2N(C)S(C)(=O)=O)n1` [Compound I-13], for which the IC50 in assay [1], in assay [2], in assay [3], in assay [4], in assay [5] and in assay [6] was not above 50 nM each time.
Regarding `COc1cc(N2CCC(N(C)C)C2)c(C)cc1Nc1ncc(Br)c(Nc2ccc3nccnc3c2N(C)S(C)(=O)=O)n1` (stereo not drawn) [Compound I-14], the IC50 in assay [1] was not above 50 nM; in assay [2], not above 50 nM; in assay [3], not above 50 nM; in assay [4], not above 50 nM; in assay [5], not above 50 nM; in assay [6], 50 to 500 nM.
For `CCc1cc(Nc2ncc(Br)c(Nc3ccc4nccnc4c3N(C)S(C)(=O)=O)n2)c(OC)cc1N1CCN(C)CC1` [Compound I-15], the IC50 in assay [1], in assay [2], in assay [3], in assay [4], in assay [5] and in assay [6] was not above 50 nM each time.
As to `CCc1cc(Nc2ncc(Br)c(Nc3ccc4nccnc4c3N(C)S(C)(=O)=O)n2)c(OC)cc1N1CCC(N(C)C)CC1` [Compound I-16], the IC50 in assay [1], in assay [2], in assay [3], in assay [4], in assay [5] and in assay [6] was not above 50 nM throughout.
Turning to `CCc1cc(Nc2ncc(Br)c(Nc3ccc4nccnc4c3N(C)S(C)(=O)=O)n2)c(OC)cc1N1CCC(N(C)C)C1` (stereo not drawn) [Compound I-17], the IC50 in assay [1], in assay [2], in assay [3], in assay [4], in assay [5] and in assay [6] was not above 50 nM throughout.
With `COc1cc(N2CCC(N3CCN(C)CC3)CC2)ccc1Nc1ncc(Cl)c(Nc2ccc3nccnc3c2N(C)S(C)(=O)=O)n1` [Compound I-18], the IC50 was 50 to 500 nM in assay [1]; 50 to 500 nM in assay [2]; not above 50 nM in assay [3]; 50 to 500 nM in assay [4]; 50 to 500 nM in assay [5]; 50 to 500 nM in assay [6].
On to `COc1cc(N2CCC(N3CCN(C)CC3)CC2)c(C)cc1Nc1ncc(Cl)c(Nc2ccc3nccnc3c2N(C)S(C)(=O)=O)n1` [Compound I-19], for which the IC50 in assay [1], in assay [2], in assay [3], in assay [4], in assay [5] and in assay [6] was not above 50 nM in each case.
As for `CCc1cc(Nc2ncc(Cl)c(Nc3ccc4nccnc4c3N(C)S(C)(=O)=O)n2)c(OC)cc1N1CCC(N2CCN(C)CC2)CC1` [Compound I-20], the IC50 in assay [1], in assay [2], in assay [3], in assay [4], in assay [5] and in assay [6] was not above 50 nM each time.
On to `CCc1cc(Nc2ncc(Cl)c(Nc3ccc4nccnc4c3N(C)S(C)(=O)=O)n2)c(OC)nc1N1CCC(N2CCN(C)CC2)CC1` [Compound I-21], for which the IC50 in assay [1] was not above 50 nM; in assay [2], not above 50 nM; in assay [3], not above 50 nM; in assay [4] it was not above 50 nM; in assay [5], not above 50 nM; in assay [6] it was 50 to 500 nM.
Consider `CCc1cc(Nc2ncc(Cl)c(Nc3ccc4nccnc4c3N(C)S(C)(=O)=O)n2)c(OC(F)(F)F)cc1N1CCC(N2CCN(C)CC2)CC1` [Compound I-22], for which the IC50 was 50 to 500 nM in assay [1]; not above 50 nM in assay [2]; 50 to 500 nM in assay [3]; not above 50 nM in assay [4]; not above 50 nM in assay [5]; 50 to 500 nM in assay [6].

For the origin of these results see patent publication US20230310428A1, “EGFR INHIBITOR AND PREPARATION METHOD AND USE THEREOF” (HONGYUN BIOTECH CO., LTD., priority 2020, published 2023).
